Measurements taken from BindingDB's records for doi:10.1021/jm00006a007 (Parke-Davis Pharmaceutical Research, 1995).

Biological target: T1, Dimer of Gag-Pol polyprotein [489-587] (Human immunodeficiency virus 1, UniProt P12497)
T1 construct: 489-587
Test: Protease Inhibition Assay
Settings: pH 4.7; 37 °C
Description: For determination of IC50 values, HIV-1 protease was added to assay buffer containing inhibitor and the substrate (H-His-Lys-Ala-Arg-Val-Leu- (p-NO2) Phe-Glu-Ala-norleucine-Ser-NH2). The Leu- (p-NO2) Phe bond of the substrate was cleaved by the enzyme, and the substrate and products were separated by reversed-phase HPLC. Absorbance was measured at 220 nm, peak areas were determined, and percentage conversion to product was calculated.

Structure (SMILES) | IC50 [nM] | Ki [nM]
O=c1oc(-c2ccccc2)cc(O)c1C(CC1CC1)SCc1ccccc1 (racemic) [3-[1-(benzylsulfanyl)-2-cyclopropylethyl]-4-hydroxy-6-phenyl-2H-pyran-2-one] | 84 | –
O=c1oc(-c2ccccc2)cc(O)c1C(CC1CCCC1)SC1CCCCC1 (racemic) [3-[1-(cyclohexylsulfanyl)-2-cyclopentylethyl]-4-hydroxy-6-phenyl-2H-pyran-2-one] | 541 | –
O=c1oc(-c2ccccc2)cc(O)c1C(CC1CC1)SC1CCCCC1 (racemic) [3-[1-(cyclohexylsulfanyl)-2-cyclopropylethyl]-4-hydroxy-6-phenyl-2H-pyran-2-one] | 147 | –
O=c1oc(-c2ccccc2)cc(O)c1C(CC1CC1)SC1CCCC1 (racemic) [3-[1-(cyclopentylsulfanyl)-2-cyclopropylethyl]-4-hydroxy-6-phenyl-2H-pyran-2-one] | 69 | –
O=c1oc(-c2ccccc2)cc(O)c1C(SCc1ccccc1)c1ccccc1 (racemic) [3-[(benzylsulfanyl)(phenyl)methyl]-4-hydroxy-6-phenyl-2H-pyran-2-one] | 480 | –
O=c1oc(-c2ccccc2)cc(O)c1C(SC1CCCC1)C1CCCC1 (racemic) [3-[cyclopentyl(cyclopentylsulfanyl)methyl]-4-hydroxy-6-phenyl-2H-pyran-2-one] | 225 | –
O=c1oc(-c2ccccc2)cc(O)c1C(Sc1ccc2ccccc2c1)c1ccccc1 (racemic) [4-hydroxy-3-[(naphthalen-2-ylsulfanyl)(phenyl)methyl]-6-phenyl-2H-pyran-2-one] | 2450 | –
O=c1oc(-c2ccccc2)cc(O)c1C(Sc1ccccc1)c1ccc2ccccc2c1 (racemic) [4-hydroxy-3-[naphthalen-2-yl(phenylsulfanyl)methyl]-6-phenyl-2H-pyran-2-one] | 7820 | –
CC(C)CC(SC1CCCC1)c1c(O)cc(-c2ccccc2)oc1=O (racemic) [(+/-)-3-[1-(Cyclopentylthio)-3-methylbutyl]-4-hydroxy-6-phenyl-2H-pyran-2-one] | – | 33
O=c1oc(-c2ccccc2)cc(O)c1C(Sc1ccccc1)C1CCCCC1 (racemic) [(+/-)-3-[Cyclohexyl(phenylthio)methyl]-4-hydroxy-phenyl-2H-pyran-2-one] | 2440 | –
O=c1oc(-c2ccccc2)cc(O)c1C(Sc1ccccc1)c1ccccc1 (racemic) [(+/-)-4-Hydroxy.6-phenyl-3-[phenyl(phenylthio)methyl]-2H-pyran-2-one] | 780 | –
O=c1oc(-c2ccccc2)cc(O)c1C(SC1CCCCC1)c1ccccc1 (stereo not drawn) [3-[(cyclohexylsulfanyl)(phenyl)methyl]-4-hydroxy-6-phenyl-2H-pyran-2-one] | 480 | –
O=c1oc(-c2ccccc2)cc(O)c1CSc1ccccc1 [4-hydroxy-6-phenyl-3-[(phenylsulfanyl)methyl]-2H-pyran-2-one] | 84300 | –
